According to ChEMBL document CHEMBL4673275, “Synthesis and biological activity of (±)-7,3',4'-trihydroxyhomoisoflavan and its analogs” (Bioorg Med Chem Lett, 2021):
The source made the active and inactive calls. The rule behind the calls is not given here.

How the values were obtained:
[1] = biological target: Acetylcholinesterase (Homo sapiens) (UniProt P22303); assay: Inhibition of AChE (unknown origin) at 1 to 25 uM; details: dose 1-25 µM
PC-12 [2] = assay: Induction of neurite outgrowth in rat PC-12 cells at 1 to 30 uM incubated for 48 hrs in presence of NGF; assay type: functional, cell-based; details: dose 1-30 µM
PC-12 [3] = assay: Induction of neurite outgrowth in rat PC-12 cells assessed as cell elongation at 30 uM incubated for 48 hrs in presence of NGF; assay type: functional, cell-based
PC-12 [4] = assay: Induction of neurite outgrowth in rat PC-12 cells at 1 to 30 uM incubated for 48 hrs; assay type: functional, cell-based; details: dose 1-30 µM

Acetylcholinesterase (Homo sapiens), sequence (P22303 whole entry): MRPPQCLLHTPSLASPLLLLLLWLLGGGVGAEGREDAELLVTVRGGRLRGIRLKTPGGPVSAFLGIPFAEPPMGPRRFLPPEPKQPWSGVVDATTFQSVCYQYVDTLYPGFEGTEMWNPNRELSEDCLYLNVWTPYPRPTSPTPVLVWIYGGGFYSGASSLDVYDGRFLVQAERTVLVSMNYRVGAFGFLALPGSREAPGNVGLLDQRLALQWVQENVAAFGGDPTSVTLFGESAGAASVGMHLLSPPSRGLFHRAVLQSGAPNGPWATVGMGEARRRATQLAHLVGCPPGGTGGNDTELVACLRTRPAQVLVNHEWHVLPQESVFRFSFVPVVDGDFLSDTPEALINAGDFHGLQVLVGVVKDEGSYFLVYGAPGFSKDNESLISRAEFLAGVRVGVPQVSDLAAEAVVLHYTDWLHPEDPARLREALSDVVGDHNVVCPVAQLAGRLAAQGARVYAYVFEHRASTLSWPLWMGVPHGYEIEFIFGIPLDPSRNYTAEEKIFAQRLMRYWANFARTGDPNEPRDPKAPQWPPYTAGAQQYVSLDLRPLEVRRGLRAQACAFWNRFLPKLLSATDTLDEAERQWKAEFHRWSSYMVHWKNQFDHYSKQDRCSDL

CN(C)C(=O)Oc1cccc([N+](C)(C)C)c1
inhibition [1]: Active

O=C(O)/C=C/c1ccc(O)c(O)c1
inhibition [1]: Active

Oc1ccc(CC2COc3ccccc3C2)cc1 (stereo not drawn)
Activity (PC-12 [2]): Active | Activity (PC-12 [3]): Active | inhibition [1]: inactive | Activity (PC-12 [4]): inactive

O=c1c(Cc2ccc(O)c(O)c2)coc2ccccc12
Activity (PC-12 [2]): Active | Activity (PC-12 [3]): Active | inhibition [1]: Active | Activity (PC-12 [4]): inactive

Oc1ccc(CC2COc3ccccc3C2)cc1O (stereo not drawn)
Activity (PC-12 [2]): Active | Activity (PC-12 [3]): Active | inhibition [1]: Active | Activity (PC-12 [4]): inactive

Oc1ccc2c(c1)OCC(Cc1ccc(O)c(O)c1)C2 (racemic)
Activity (PC-12 [2]): Active | Activity (PC-12 [3]): Active | inhibition [1]: Active | Activity (PC-12 [4]): inactive
